Measurements: ChEMBL document CHEMBL4800729 (2021)

Columns and labels:
[1] = molecular target: T1, 5-hydroxytryptamine receptor 1B (Homo sapiens, UniProt P28222); experiment: GPCRScan assay: inhibition of 5-HT1B; set-up: radioligand conc. used [nm] 0.6 – 1.5, parental cells stable HEK
[2] = molecular target: 5-hydroxytryptamine receptor 6 (Homo sapiens, UniProt P50406); experiment: GPCRScan assay: inhibition of 5-HT6; set-up: radioligand conc. used [nm] 2.0 – 4.0, parental cells stable HEK
D(1A) dopamine receptor = D(1A) dopamine receptor (Homo sapiens, UniProt P21728); experiment: GPCRScan assay: inhibition of D1; set-up: radioligand conc. used [nm] 0.6 – 1.3, parental cells HEKT
[3] = molecular target: T2, 5-hydroxytryptamine receptor 1A (Homo sapiens) (UniProt P08908); details: Compound concentration 10.0 uM
T2 sequence (whole entry): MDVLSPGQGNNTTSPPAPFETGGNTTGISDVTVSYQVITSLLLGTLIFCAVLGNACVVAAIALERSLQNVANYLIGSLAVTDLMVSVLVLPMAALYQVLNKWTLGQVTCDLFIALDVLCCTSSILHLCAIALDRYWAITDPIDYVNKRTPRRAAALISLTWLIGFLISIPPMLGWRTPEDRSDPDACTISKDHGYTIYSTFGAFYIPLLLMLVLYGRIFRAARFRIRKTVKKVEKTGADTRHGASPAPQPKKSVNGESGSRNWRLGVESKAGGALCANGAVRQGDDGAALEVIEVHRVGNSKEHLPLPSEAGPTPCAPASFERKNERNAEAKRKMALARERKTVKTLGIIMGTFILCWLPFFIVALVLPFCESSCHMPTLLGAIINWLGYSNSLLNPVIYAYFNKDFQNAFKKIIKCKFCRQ

[4] = molecular target: T1, 5-hydroxytryptamine receptor 1B; details: Compound concentration 10.0 uM
[5] = molecular target: 5-hydroxytryptamine receptor 1D (Homo sapiens) (UniProt P28221); details: Compound concentration 10.0 uM
5-hydroxytryptamine receptor 1D (Homo sapiens), sequence (P28221 whole entry): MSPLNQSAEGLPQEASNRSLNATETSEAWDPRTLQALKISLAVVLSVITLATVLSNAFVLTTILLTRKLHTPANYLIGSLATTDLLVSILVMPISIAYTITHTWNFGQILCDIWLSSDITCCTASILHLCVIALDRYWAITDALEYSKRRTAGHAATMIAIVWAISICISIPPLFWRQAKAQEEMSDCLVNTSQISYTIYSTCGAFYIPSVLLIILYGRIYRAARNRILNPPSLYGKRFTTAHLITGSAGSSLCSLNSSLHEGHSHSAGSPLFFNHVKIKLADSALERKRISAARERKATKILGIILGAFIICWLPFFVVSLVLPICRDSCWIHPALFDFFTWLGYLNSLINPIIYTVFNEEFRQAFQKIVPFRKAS

[6] = molecular target: 5-hydroxytryptamine receptor 2A (Homo sapiens) (UniProt P28223); details: Compound concentration 10.0 uM
[7] = molecular target: 5-hydroxytryptamine receptor 3A (Homo sapiens) (UniProt P46098); details: Compound concentration 10.0 uM
5-hydroxytryptamine receptor 3A (Homo sapiens), sequence (P46098 whole entry): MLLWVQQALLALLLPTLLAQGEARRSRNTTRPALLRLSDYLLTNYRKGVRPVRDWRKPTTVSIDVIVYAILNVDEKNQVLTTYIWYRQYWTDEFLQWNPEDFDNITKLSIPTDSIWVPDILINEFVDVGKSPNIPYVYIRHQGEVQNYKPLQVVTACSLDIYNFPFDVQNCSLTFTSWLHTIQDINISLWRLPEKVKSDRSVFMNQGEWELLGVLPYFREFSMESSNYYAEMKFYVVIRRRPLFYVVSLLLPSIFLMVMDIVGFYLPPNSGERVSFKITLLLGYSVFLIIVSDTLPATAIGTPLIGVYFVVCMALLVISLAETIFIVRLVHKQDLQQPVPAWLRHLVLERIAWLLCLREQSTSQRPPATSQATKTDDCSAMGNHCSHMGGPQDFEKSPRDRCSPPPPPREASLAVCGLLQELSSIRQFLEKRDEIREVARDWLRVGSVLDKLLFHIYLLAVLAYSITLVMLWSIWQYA

[8] = molecular target: 5-hydroxytryptamine receptor 5A (Homo sapiens) (UniProt P47898); details: Compound concentration 10.0 uM
[9] = molecular target: D(2) dopamine receptor (Homo sapiens) (UniProt P14416); details: Compound concentration 10.0 uM
D(2) dopamine receptor (Homo sapiens), sequence (P14416 whole entry): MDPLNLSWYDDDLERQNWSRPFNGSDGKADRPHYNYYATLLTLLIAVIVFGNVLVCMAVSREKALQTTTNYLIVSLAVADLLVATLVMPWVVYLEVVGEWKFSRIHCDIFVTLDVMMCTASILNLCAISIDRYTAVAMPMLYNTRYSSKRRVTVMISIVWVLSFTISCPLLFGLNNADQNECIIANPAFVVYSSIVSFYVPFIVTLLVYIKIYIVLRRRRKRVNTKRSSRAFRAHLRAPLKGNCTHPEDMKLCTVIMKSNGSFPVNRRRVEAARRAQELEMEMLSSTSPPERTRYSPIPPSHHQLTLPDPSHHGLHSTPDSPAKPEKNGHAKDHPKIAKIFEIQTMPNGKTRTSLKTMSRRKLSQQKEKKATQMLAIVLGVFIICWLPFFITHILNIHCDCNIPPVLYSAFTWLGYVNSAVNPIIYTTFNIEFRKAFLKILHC

[10] = molecular target: D(3) dopamine receptor (Homo sapiens) (UniProt P35462); details: Compound concentration 10.0 uM
[11] = molecular target: D(4) dopamine receptor (Homo sapiens) (UniProt P21917); details: Compound concentration 10.0 uM
D(4) dopamine receptor (Homo sapiens), sequence (P21917 whole entry): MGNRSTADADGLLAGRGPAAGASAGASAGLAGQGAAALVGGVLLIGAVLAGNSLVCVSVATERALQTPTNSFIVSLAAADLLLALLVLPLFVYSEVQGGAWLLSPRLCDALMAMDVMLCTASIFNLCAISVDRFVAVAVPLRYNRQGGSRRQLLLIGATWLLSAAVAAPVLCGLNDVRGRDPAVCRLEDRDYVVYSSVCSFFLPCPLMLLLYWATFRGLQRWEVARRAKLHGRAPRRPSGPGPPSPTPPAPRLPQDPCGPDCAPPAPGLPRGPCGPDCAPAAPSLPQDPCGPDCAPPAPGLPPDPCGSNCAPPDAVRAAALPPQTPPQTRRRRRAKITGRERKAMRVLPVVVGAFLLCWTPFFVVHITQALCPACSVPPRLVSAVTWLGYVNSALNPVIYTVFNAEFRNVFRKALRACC

[12] = molecular target: Sodium-dependent noradrenaline transporter (Homo sapiens) (UniProt P23975); details: Compound concentration 10.0 uM
[13] = molecular target: Sodium-dependent dopamine transporter (Homo sapiens) (UniProt Q01959); details: Compound concentration 10.0 uM
[14] = molecular target: Mu-type opioid receptor (Homo sapiens) (UniProt P35372); details: Compound concentration 10.0 uM
Mu-type opioid receptor (Homo sapiens), sequence (P35372 whole entry): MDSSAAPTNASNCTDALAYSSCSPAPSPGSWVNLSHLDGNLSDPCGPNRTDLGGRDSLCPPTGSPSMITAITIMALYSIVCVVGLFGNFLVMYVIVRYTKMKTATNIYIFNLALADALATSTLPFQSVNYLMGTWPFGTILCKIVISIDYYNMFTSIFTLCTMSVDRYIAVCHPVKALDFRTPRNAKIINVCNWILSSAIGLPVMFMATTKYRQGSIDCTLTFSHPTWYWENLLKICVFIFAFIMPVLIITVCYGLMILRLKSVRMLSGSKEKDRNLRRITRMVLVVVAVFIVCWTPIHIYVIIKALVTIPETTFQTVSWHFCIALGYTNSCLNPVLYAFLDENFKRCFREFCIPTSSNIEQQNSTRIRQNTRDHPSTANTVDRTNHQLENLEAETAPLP

[15] = molecular target: Delta-type opioid receptor (Homo sapiens) (UniProt P41143); details: Compound concentration 10.0 uM
[16] = molecular target: Kappa-type opioid receptor (Homo sapiens) (UniProt P41145); details: Compound concentration 10.0 uM
Kappa-type opioid receptor (Homo sapiens), sequence (P41145 whole entry): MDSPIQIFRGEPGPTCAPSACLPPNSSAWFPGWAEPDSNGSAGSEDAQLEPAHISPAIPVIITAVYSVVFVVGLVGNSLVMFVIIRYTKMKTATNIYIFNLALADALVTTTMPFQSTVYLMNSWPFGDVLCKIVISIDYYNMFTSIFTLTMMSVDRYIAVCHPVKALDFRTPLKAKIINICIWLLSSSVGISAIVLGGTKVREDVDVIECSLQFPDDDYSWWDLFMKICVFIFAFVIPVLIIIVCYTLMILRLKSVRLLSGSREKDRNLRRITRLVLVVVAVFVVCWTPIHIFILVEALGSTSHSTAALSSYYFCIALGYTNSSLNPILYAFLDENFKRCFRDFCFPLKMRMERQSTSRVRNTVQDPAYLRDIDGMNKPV

[17] = molecular target: Histamine H1 receptor (Homo sapiens) (UniProt P35367); details: Compound concentration 10.0 uM
Histamine H1 receptor (Homo sapiens), sequence (P35367 whole entry): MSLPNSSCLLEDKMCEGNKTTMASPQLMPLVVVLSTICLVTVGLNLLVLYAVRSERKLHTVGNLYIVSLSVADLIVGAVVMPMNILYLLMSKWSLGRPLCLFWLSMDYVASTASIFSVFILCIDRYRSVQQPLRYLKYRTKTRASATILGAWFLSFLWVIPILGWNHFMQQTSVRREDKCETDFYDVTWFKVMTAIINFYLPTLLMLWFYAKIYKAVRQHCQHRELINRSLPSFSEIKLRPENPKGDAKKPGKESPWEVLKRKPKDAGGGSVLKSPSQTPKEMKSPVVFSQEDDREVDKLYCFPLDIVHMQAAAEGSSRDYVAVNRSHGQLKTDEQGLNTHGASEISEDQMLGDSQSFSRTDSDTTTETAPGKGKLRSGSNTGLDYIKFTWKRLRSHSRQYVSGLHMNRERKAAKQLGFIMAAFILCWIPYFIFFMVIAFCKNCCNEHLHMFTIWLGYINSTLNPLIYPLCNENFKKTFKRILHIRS

[18] = molecular target: Histamine H2 receptor (Homo sapiens) (UniProt P25021); details: Compound concentration 10.0 uM
[19] = molecular target: Histamine H3 receptor (Homo sapiens) (UniProt Q9Y5N1); details: Compound concentration 10.0 uM
Histamine H3 receptor (Homo sapiens), sequence (Q9Y5N1 whole entry): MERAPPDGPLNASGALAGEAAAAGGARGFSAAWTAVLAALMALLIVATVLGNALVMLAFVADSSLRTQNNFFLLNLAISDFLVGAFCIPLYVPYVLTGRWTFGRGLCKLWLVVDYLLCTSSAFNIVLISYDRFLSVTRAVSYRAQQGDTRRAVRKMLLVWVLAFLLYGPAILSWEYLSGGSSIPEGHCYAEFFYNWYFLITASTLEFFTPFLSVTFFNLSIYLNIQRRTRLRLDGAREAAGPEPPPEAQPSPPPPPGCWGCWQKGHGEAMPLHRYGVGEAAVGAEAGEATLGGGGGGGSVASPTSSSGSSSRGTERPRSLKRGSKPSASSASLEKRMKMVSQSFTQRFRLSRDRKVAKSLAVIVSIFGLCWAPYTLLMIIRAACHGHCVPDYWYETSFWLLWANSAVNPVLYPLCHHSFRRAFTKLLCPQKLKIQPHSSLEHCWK

[20] = molecular target: Histamine H4 receptor (Homo sapiens) (UniProt Q9H3N8); details: Compound concentration 10.0 uM
[21] = molecular target: Alpha-2A adrenergic receptor (Homo sapiens) (UniProt P08913); details: Compound concentration 10.0 uM
Alpha-2A adrenergic receptor (Homo sapiens), sequence (P08913 whole entry): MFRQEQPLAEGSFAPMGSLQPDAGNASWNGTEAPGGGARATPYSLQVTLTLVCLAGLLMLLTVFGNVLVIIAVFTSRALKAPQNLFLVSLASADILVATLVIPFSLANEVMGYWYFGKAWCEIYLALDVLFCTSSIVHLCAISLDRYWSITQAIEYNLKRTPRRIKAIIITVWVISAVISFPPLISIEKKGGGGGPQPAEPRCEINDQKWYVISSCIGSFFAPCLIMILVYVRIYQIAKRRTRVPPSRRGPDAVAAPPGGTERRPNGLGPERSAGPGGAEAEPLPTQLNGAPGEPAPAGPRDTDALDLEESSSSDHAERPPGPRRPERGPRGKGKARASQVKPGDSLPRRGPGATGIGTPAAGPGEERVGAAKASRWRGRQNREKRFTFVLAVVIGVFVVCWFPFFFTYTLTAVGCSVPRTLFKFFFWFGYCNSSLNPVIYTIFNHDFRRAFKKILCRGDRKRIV

[22] = molecular target: T3, Alpha-2B adrenergic receptor (Homo sapiens) (UniProt P18089); details: Compound concentration 10.0 uM
T3 sequence (whole entry): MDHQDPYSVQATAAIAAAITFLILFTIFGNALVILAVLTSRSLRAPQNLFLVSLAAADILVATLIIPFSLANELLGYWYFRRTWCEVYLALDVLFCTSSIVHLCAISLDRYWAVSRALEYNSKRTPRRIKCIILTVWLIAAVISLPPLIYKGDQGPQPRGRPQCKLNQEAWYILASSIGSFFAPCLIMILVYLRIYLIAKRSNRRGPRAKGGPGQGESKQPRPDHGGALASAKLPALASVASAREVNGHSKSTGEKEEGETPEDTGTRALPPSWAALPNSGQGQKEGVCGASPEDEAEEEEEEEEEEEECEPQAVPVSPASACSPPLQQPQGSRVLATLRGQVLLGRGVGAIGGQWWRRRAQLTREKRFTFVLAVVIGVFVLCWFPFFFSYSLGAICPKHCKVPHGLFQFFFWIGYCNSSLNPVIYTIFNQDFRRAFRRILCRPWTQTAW

[23] = molecular target: T4, Alpha-2C adrenergic receptor (Homo sapiens) (UniProt P18825); details: Compound concentration 10.0 uM
T4 sequence (whole entry): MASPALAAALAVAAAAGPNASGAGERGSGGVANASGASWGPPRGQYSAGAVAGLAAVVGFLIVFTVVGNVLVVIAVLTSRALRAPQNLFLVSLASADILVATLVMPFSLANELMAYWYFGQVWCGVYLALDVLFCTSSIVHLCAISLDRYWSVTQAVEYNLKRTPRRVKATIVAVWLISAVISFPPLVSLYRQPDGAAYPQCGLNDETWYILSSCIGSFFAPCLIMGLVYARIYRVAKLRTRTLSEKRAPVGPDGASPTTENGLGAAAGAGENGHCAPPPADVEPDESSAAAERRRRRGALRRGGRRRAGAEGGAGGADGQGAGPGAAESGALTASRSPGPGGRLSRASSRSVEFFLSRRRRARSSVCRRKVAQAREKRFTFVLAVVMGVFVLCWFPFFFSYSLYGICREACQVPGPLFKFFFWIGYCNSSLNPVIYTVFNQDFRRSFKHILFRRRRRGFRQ

[24] = molecular target: Beta-1 adrenergic receptor (Homo sapiens) (UniProt P08588); details: Compound concentration 10.0 uM
[25] = molecular target: T5, Muscarinic acetylcholine receptor M1 (Homo sapiens) (UniProt P11229); details: Compound concentration 10.0 uM
T5 sequence (whole entry): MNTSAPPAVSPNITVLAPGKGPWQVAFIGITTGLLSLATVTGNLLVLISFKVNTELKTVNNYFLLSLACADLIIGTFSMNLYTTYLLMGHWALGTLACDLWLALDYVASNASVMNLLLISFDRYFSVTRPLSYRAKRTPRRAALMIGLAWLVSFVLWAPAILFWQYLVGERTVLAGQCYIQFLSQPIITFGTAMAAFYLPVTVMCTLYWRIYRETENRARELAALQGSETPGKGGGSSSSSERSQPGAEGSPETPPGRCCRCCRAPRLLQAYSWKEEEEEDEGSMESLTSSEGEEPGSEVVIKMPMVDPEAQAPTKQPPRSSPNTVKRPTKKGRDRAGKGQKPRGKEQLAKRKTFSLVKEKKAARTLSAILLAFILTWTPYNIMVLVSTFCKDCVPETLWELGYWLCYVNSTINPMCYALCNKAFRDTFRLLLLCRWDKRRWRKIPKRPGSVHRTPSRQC

[26] = molecular target: Muscarinic acetylcholine receptor M4 (Homo sapiens) (UniProt P08173); details: Compound concentration 10.0 uM
[27] = molecular target: Beta-3 adrenergic receptor (Homo sapiens) (UniProt P13945); details: Compound concentration 10.0 uM
Rattus norvegicus = species: Rattus norvegicus; details: Compound concentration 10.0 uM
[28] = molecular target: Sigma intracellular receptor 2 (Homo sapiens) (UniProt Q5BJF2); details: Compound concentration 10.0 uM
[29] = molecular target: Sigma non-opioid intracellular receptor 1 (Homo sapiens) (UniProt Q99720); details: Compound concentration 10.0 uM
Sigma non-opioid intracellular receptor 1 (Homo sapiens), sequence (Q99720 whole entry): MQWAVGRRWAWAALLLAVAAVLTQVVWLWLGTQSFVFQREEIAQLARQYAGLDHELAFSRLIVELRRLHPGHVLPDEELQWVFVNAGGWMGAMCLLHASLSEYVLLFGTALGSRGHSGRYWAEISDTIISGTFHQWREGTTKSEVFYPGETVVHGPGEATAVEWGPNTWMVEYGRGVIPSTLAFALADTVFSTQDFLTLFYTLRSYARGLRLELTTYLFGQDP

T1 sequence (P28222 whole entry): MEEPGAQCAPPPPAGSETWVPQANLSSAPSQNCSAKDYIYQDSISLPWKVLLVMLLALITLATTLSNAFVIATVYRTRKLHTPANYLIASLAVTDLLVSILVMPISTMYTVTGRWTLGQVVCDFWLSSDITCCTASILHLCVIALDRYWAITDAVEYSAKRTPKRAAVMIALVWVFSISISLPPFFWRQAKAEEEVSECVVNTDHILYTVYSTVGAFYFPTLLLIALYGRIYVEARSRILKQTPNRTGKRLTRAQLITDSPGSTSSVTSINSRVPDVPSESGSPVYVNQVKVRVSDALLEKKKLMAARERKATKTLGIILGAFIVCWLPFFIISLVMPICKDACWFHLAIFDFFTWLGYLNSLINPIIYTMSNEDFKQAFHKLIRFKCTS
5-hydroxytryptamine receptor 6, sequence (P50406 whole entry): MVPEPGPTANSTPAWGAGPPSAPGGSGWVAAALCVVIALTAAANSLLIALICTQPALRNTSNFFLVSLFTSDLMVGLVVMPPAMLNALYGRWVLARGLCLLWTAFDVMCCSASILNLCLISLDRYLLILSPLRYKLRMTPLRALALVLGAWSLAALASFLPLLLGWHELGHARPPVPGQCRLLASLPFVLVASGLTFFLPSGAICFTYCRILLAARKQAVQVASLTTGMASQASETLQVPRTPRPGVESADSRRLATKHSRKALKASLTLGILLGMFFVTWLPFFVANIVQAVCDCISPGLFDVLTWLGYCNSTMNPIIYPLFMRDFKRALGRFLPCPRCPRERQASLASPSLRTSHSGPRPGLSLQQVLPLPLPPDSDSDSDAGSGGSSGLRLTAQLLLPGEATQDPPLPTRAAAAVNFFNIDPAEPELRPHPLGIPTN

CC[C@H](Nc1c(C#N)c(-c2ccc(-c3cccc(C)c3F)cc2)nc2cnccc12)C(=O)O [BAY-0361]
Ki [1]: > 10 µM | pKi [1]: < 5 | Ki [2]: > 10 µM | pKi [2]: < 5 | Ki (D(1A) dopamine receptor): 9.48 µM | inhibition [3]: 8.67% | inhibition [4]: 51% | inhibition [5]: 46.6% | inhibition [6]: -9.27% | inhibition [7]: 2.07% | inhibition [8]: -9.19% | inhibition [9]: -5.16% | inhibition [10]: 7.14% | inhibition [11]: -8.01% | inhibition [12]: -6.08% | inhibition [13]: 38.8% | inhibition [14]: -9.08% | inhibition [15]: 3.55% | inhibition [16]: 4.36% | inhibition [17]: -8.53% | inhibition [18]: 9.78% | inhibition [19]: -8.98% | inhibition [20]: 18.7% | inhibition [21]: 8.09% | inhibition [22]: -7.7% | inhibition [23]: -6.46% | inhibition [24]: 5.52% | inhibition [25]: -8.53% | inhibition [26]: -0.83% | inhibition [27]: 21.6% | inhibition (Rattus norvegicus): 41.8% | inhibition [28]: 11.6% | inhibition [29]: 23.1%
